Reference: ChEMBL document CHEMBL1201862, “PubChem BioAssay data set” (2004)
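Cells were grown in 96-well plates and exposed to each compound for 48 hours at five concentrations; endpoints were interpolated linearly between bracketing concentrations, or set to the highest concentration if not reached. GI50: concentration for 50% inhibition of growth.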 The source made the active and inactive calls. Cut-off read from the data, not from the text of the source: active = GI50 up to about 1.1 µM and inactive = higher.

Columns and labels:
Experiment in all cases: NCI-60 cell line screen, 48 h
CCRF-CEM = system: CCRF-CEM
KM12 = system: KM12
K562 = system: K562
A498 = system: A498
SF-539 = system: SF-539
EKVX = system: EKVX
CAKI-1 = system: CAKI-1
SW-620 = system: SW-620
SN12C = system: SN12C
Malme-3M = system: Malme-3M
MOLT-4 = system: MOLT-4
SF-295 = system: SF-295
HOP-62 = system: HOP-62
NCI-H460 = system: NCI-H460
SK-MEL-2 = system: SK-MEL-2
HT-29 = system: HT-29
DMS-273 = system: DMS-273
NCI-H522 = system: NCI-H522
SK-MEL-28 = system: SK-MEL-28
OVCAR-5 = system: OVCAR-5
UACC-257 = system: UACC-257
U-251 = system: U-251
HL-60 = system: HL-60
LOX IMVI = system: LOX IMVI
SF-268 = system: SF-268
RXF 393 = system: RXF 393
DLD-1 = system: DLD-1
SK-MEL-5 = system: SK-MEL-5
HCT-15 = system: HCT-15
SNB-75 = system: SNB-75
SNB-19 = system: SNB-19
NCI-H23 = system: NCI-H23
RPMI-8226 = system: RPMI-8226
OVCAR-3 = system: OVCAR-3
HCC 2998 = system: HCC 2998
MCF7 = system: MCF7
COLO 205 = system: COLO 205
UACC-62 = system: UACC-62
LXFL 529 = system: LXFL 529
SR = system: SR
A549 = system: A549
SK-OV-3 = system: SK-OV-3
M19-MEL = system: M19-MEL
TK-10 = system: TK-10
OVCAR-4 = system: OVCAR-4
DMS-114 = system: DMS-114
KM-20L2 = system: KM-20L2
HOP-18 = system: HOP-18
UO-31 = system: UO-31
T47D = system: T47D
Hs-578T = system: Hs-578T
M14 = system: M14
HOP-92 = system: HOP-92
IGROV-1 = system: IGROV-1
NCI/ADR-RES = system: NCI/ADR-RES
BT-549 = system: BT-549
786-0 = system: 786-0
HCT-116 = system: HCT-116
DU-145 = system: DU-145
ACHN = system: ACHN
MDA-N = system: MDA-N
MDA-MB-435 = system: MDA-MB-435
NCI-H226 = system: NCI-H226
MDA-MB-231 = system: MDA-MB-231
PC-3 = system: PC-3
OVCAR-8 = system: OVCAR-8

With `CCN(CC)CC[n+]1ccc2c(C)c3[nH]c4ccccc4c3c(C)c2c1` the GI50 (CCRF-CEM) was 219 nM (active), the GI50 (KM12) was 385 nM (active) and the GI50 (K562) was 182 nM (active). For the same compound, the GI50 (A498) was 5190 nM (inactive), the GI50 (SF-539) was 413 nM (active) and the GI50 (EKVX) was 982 nM (active). For the same compound, the GI50 (CAKI-1) was 1110 nM (active), the GI50 (SW-620) was 445 nM (active) and the GI50 (SN12C) was 222 nM (active). For the same compound, the GI50 (Malme-3M) was 583 nM (active), the GI50 (MOLT-4) was 182 nM (active) and the GI50 (SF-295) was 701 nM (active). The GI50 (HOP-62) was 953 nM (active), the GI50 (NCI-H460) was 451 nM (active) and the GI50 (SK-MEL-2) was 465 nM (active). The GI50 (HT-29) was 518 nM (active), the GI50 (DMS-273) was 315 nM (active) and the GI50 (NCI-H522) was 211 nM (active). The GI50 (SK-MEL-28) was 352 nM (active), the GI50 (OVCAR-5) was 1140 nM (inactive) and the GI50 (UACC-257) was 565 nM (active). For the same compound, the GI50 (U-251) was 173 nM (active), the GI50 (HL-60) was 310 nM (active) and the GI50 (LOX IMVI) was 399 nM (active). For the same compound, the GI50 (SF-268) was 222 nM (active), the GI50 (RXF 393) was 2090 nM (inactive) and the GI50 (DLD-1) was 1670 nM (inactive). For the same compound, the GI50 (SK-MEL-5) was 337 nM (active), the GI50 (HCT-15) was 16300 nM and the GI50 (SNB-75) was 251 nM (active). For the same compound, the GI50 (SNB-19) was 170 nM (active), the GI50 (NCI-H23) was 292 nM (active) and the GI50 (RPMI-8226) was 644 nM (active). For the same compound, the GI50 (OVCAR-3) was 213 nM (active), the GI50 (HCC 2998) was 319 nM (active) and the GI50 (MCF7) was 678 nM (active).
In the case of `CO[C@H](/C(C)=C/C=C/C(C)=C/c1coc(C)n1)[C@H](C)[C@H]1C[C@@H](O)[C@@]2(C)O[C@H]2/C=C/[C@@H](C)[C@@H]2C[C@@H](CC(=O)O2)C[C@H]2O[C@@H]2C(=O)O1`, the GI50 (COLO 205) is reported as < 10 nM (active), the GI50 (K562) is reported as < 10 nM (active) and the GI50 (UACC-62) is reported as < 10 nM (active). For the same compound, the GI50 (LXFL 529) was < 10 nM (active), the GI50 (SR) was < 10 nM (active) and the GI50 (EKVX) was 0.00203 nM (active). For the same compound, the GI50 (A549) was < 10 nM (active), the GI50 (Malme-3M) was < 10 nM (active) and the GI50 (SK-OV-3) was 0.00103 nM (active). For the same compound, the GI50 (SK-MEL-2) was < 10 nM (active), the GI50 (HT-29) was 13.3 nM (active) and the GI50 (M19-MEL) was < 23.6 nM (active). For the same compound, the GI50 (TK-10) was 0.00321 nM (active), the GI50 (DMS-273) was < 10 nM (active) and the GI50 (OVCAR-5) was 0.384 nM (active). For the same compound, the GI50 (UACC-257) was < 28.3 nM (active), the GI50 (OVCAR-4) was 0.00518 nM (active) and the GI50 (DMS-114) was < 10 nM (active). The GI50 (DLD-1) was 14.7 nM (active), the GI50 (KM-20L2) was < 10 nM (active) and the GI50 (SNB-75) was < 27.1 nM (active). For the same compound, the GI50 (HCC 2998) was < 10 nM (active) and the GI50 (HOP-18) was 50 nM (active).
`CC[C@]12CCCN3CCc4c(n(c5ccccc45)C(=O)C1)[C@@H]32` [VINBURNINE] was tested, and the GI50 (COLO 205) was 4430 nM (inactive), the GI50 (UO-31) was 4750 nM (inactive) and the GI50 (CCRF-CEM) was 1310 nM (inactive). For the same compound, the GI50 (KM12) was 4540 nM (inactive), the GI50 (K562) was 2900 nM (inactive) and the GI50 (A498) was 14400 nM (inactive). For the same compound, the GI50 (UACC-62) was 5820 nM (inactive), the GI50 (T47D) was 11500 nM (inactive) and the GI50 (SR) was 1310 nM (inactive). For the same compound, the GI50 (SF-539) was 7910 nM (inactive), the GI50 (EKVX) was 46900 nM (inactive) and the GI50 (CAKI-1) was > 100000 nM (inactive). For the same compound, the GI50 (A549) was 7500 nM (inactive), the GI50 (Hs-578T) was 9330 nM (inactive) and the GI50 (SW-620) was 3940 nM (inactive). For the same compound, the GI50 (SN12C) was 12900 nM (inactive), the GI50 (Malme-3M) was 4630 nM (inactive) and the GI50 (MOLT-4) was 12200 nM (inactive). For the same compound, the GI50 (SK-OV-3) was 10800 nM (inactive), the GI50 (SF-295) was 3580 nM (inactive) and the GI50 (HOP-62) was 4760 nM (inactive). For the same compound, the GI50 (NCI-H460) was 3720 nM (inactive), the GI50 (SK-MEL-2) was 4920 nM (inactive) and the GI50 (M14) was 3970 nM (inactive). For the same compound, the GI50 (HOP-92) was > 80900 nM (inactive), the GI50 (HT-29) was 3560 nM (inactive) and the GI50 (TK-10) was 12500 nM (inactive). For the same compound, the GI50 (IGROV-1) was 5850 nM (inactive), the GI50 (NCI/ADR-RES) was 3250 nM (inactive) and the GI50 (BT-549) was 24700 nM (inactive). For the same compound, the GI50 (NCI-H522) was 2320 nM (inactive), the GI50 (SK-MEL-28) was > 36500 nM (inactive) and the GI50 (OVCAR-5) was 34600 nM (inactive). For the same compound, the GI50 (UACC-257) was 15200 nM (inactive), the GI50 (786-0) was 10100 nM (inactive) and the GI50 (U-251) was 4880 nM (inactive). For the same compound, the GI50 (HL-60) was 2650 nM (inactive), the GI50 (LOX IMVI) was 10000 nM (inactive) and the GI50 (SF-268) was 11600 nM (inactive). The GI50 (HCT-116) was 3860 nM (inactive), the GI50 (RXF 393) was 15600 nM (inactive) and the GI50 (DU-145) was 19200 nM (inactive). For the same compound, the GI50 (OVCAR-4) was 18200 nM (inactive), the GI50 (ACHN) was 32400 nM (inactive) and the GI50 (MDA-N) was 1530 nM (inactive). The GI50 (SK-MEL-5) was 5050 nM (inactive), the GI50 (MDA-MB-435) was 1260 nM (inactive) and the GI50 (NCI-H226) was > 83800 nM (inactive). The GI50 (HCT-15) was 4150 nM, the GI50 (MDA-MB-231) was 9350 nM (inactive) and the GI50 (SNB-75) was 13300 nM (inactive). For the same compound, the GI50 (SNB-19) was 14500 nM (inactive), the GI50 (NCI-H23) was 13700 nM (inactive) and the GI50 (PC-3) was 18200 nM (inactive). For the same compound, the GI50 (OVCAR-8) was 15500 nM (inactive), the GI50 (RPMI-8226) was 4560 nM (inactive) and the GI50 (OVCAR-3) was 2440 nM (inactive). For the same compound, the GI50 (HCC 2998) was 3920 nM (inactive) and the GI50 (MCF7) was 3510 nM (inactive).
